In PubChem BioAssay AID1963962 (Molecular Pharmacology Branch, DTP, NCI, 2024):

Test system: 967376-340-R-J2-PDC multicell spheroid viability
Experiment: Anticancer human tumor 967376-340-R-J2-PDC patient-derived colon adenocarcinoma cell line growth inhibition [PI3K]
Details: for IC50: curve of first compound; for viability, T/C: stronger effect = lower value
Outline: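 We assembled tumor spheroids that included a stromal compartment of HUVEC and MSCs, then exposed them to targeted agents alone and together with PI3K pathway inhibitors. Concentration series descended by half-log from clinically achievable Cmax levels. Viability served as the endpoint.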
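Note: spheroids exposed to agents for 7 days before read-out.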
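Throughout, for viability, T/C: luminescence used as surrogate of cell viability.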

`Cn1cnc2c(F)c(Nc3ccc(Br)cc3Cl)c(C(=O)NOCCO)cc21` + CC(Nc1ncnc2nc[nH]c12)c1cc2cccc(Cl)c2c(=O)n1-c1ccccc1 gave an IC50 (second compound 0.0316 µM) of 1460 nM, an IC50 (second compound 0.1 µM) of 2110 nM and an IC50 (second compound 0.316 µM) of 1920 nM. For the same compound, the IC50 (second compound 1 µM) was 1330 nM, the IC50 (second compound 3.16 µM) was 1340 nM and the IC50 (second compound 10 µM) was 666 nM. The viability, T/C (second compound 0.0316 µM, first compound 0.00949 µM) was 73.5%, the viability, T/C (second compound 0.0316 µM, first compound 0.03 µM) was 112% and the viability, T/C (second compound 0.0316 µM, first compound 0.0949 µM) was 95.4%. The viability, T/C (second compound 0.0316 µM, first compound 0.3 µM) was 75.5%, the viability, T/C (second compound 0.0316 µM, first compound 0.949 µM) was 61.4% and the viability, T/C (second compound 0.0316 µM, first compound 3 µM) was 34.5%. The viability, T/C (second compound 0.1 µM, first compound 0.00949 µM) was 106%, the viability, T/C (second compound 0.1 µM, first compound 0.03 µM) was 107% and the viability, T/C (second compound 0.1 µM, first compound 0.0949 µM) was 87.5%. It also gave a viability, T/C (second compound 0.1 µM, first compound 0.3 µM) of 102%, a viability, T/C (second compound 0.1 µM, first compound 0.949 µM) of 74.7% and a viability, T/C (second compound 0.1 µM, first compound 3 µM) of 38.5%. It also gave a viability, T/C (second compound 0.316 µM, first compound 0.00949 µM) of 78.8%, a viability, T/C (second compound 0.316 µM, first compound 0.03 µM) of 104% and a viability, T/C (second compound 0.316 µM, first compound 0.0949 µM) of 97.9%. The viability, T/C (second compound 0.316 µM, first compound 0.3 µM) was 78.3%, the viability, T/C (second compound 0.316 µM, first compound 0.949 µM) was 61.9% and the viability, T/C (second compound 0.316 µM, first compound 3 µM) was 43%. It also gave a viability, T/C (second compound 1 µM, first compound 0.00949 µM) of 97.1%, a viability, T/C (second compound 1 µM, first compound 0.03 µM) of 97.4% and a viability, T/C (second compound 1 µM, first compound 0.0949 µM) of 90.1%. The viability, T/C (second compound 1 µM, first compound 0.3 µM) was 78.1%, the viability, T/C (second compound 1 µM, first compound 0.949 µM) was 64.5% and the viability, T/C (second compound 1 µM, first compound 3 µM) was 21.1%. The viability, T/C (second compound 3.16 µM, first compound 0.00949 µM) was 82%, the viability, T/C (second compound 3.16 µM, first compound 0.03 µM) was 83.6% and the viability, T/C (second compound 3.16 µM, first compound 0.0949 µM) was 70.7%. It also gave a viability, T/C (second compound 3.16 µM, first compound 0.3 µM) of 97%, a viability, T/C (second compound 3.16 µM, first compound 0.949 µM) of 61.6% and a viability, T/C (second compound 3.16 µM, first compound 3 µM) of 22.6%. For the same compound, the viability, T/C (second compound 10 µM, first compound 0.00949 µM) was 78.4%, the viability, T/C (second compound 10 µM, first compound 0.03 µM) was 64.3% and the viability, T/C (second compound 10 µM, first compound 0.0949 µM) was 69.2%. For the same compound, the viability, T/C (second compound 10 µM, first compound 0.3 µM) was 66%, the viability, T/C (second compound 10 µM, first compound 0.949 µM) was 43.1% and the viability, T/C (second compound 10 µM, first compound 3 µM) was 13.7%.
